IC50 data for 14 compounds are collected here from patent US11667631B2, “FGFR4 inhibitor, preparation method therefor, and applications thereof” (Jiangsu Hansoh Pharmaceutical Group Co., Ltd., priority 2016, dated 2023).

One assay has as its target FGFR4 kinase (Homo sapiens (Human), UniProt P22455). Description: Enzymologic experiment of FGFR4 (TR-FRET). It counts as biochemical. The note with it: FGFR4 kinase activity. The procedure:
In this experiment, the inhibitory effect of the compounds on FGFR4 kinase activity was tested by a fluorescence resonance energy transfer (TR-FRET) method, and the half maximal inhibitory concentration (IC50) of the compounds on the FGFR4 kinase activity was determined.
2) 1˜5 μL of diluted solution in gradient of the compound was added.
3) 1˜5 μL of a substrate mixture containing substrate polypeptide with a final concentration of 5˜50 nM and ATP with a final concentration of 10˜200 μM was added.
4) The mixture was incubated for 0.5˜3 hours at room temperature.
5) 10 μL of EDTA and a test solution comprising labeled antibody were added, and the plate was incubated for 1 hour at room temperature.
7) The inhibition rates were calculated according to the fluorescence signal values.
In general terms: TR-FRET usually uses a lanthanide donor and a delayed reading to cut background.

A further assay concerns the target FGFR1 kinase (Homo sapiens (Human), UniProt P11362). Description: Enzymologic experiment of FGFR1 (TR-FRET). It counts as biochemical. As to conditions: FGFR1 kinase activity. A digest of the protocol:
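FGFR1 at 0.1˜5 nM final with substrate peptide 5˜50 nM and ATP 10˜200 μM final, 0.5˜3 h at room temperature. Stopped with EDTA plus labeled antibody for 1 h; TR-FRET signal read at 665 nm, IC50 fitted from inhibition rates.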

In a further assay the test system is Hep 3B cells. Description: Inhibition of Hep 3B cell proliferation (CellTiter-Glo). As to conditions: Homo sapiens, Hep3B; Hep 3B cell proliferation, 72 hours, CellTiter-Glo; read-out: Hep 3B IC50. In kind it is cell-based. Background: In ATP-based viability assays light output follows the ATP content of the culture.
Another assay concerns SK-HEP-1 cells. Nature of the assay: Inhibition of SK-HEP-1 cell proliferation (CellTiter-Glo). In kind it is cell-based. As to conditions: Homo sapiens, SK-HEP1; SK-HEP-1 cell proliferation, 72 hours, CellTiter-Glo; read-out: SK-HEP-1 IC50. A digest of the protocol: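 Cells seeded and allowed to attach 16–24 h, then exposed to serially diluted compound for 72 h at 37 °C, 5% CO2. Viability read by CellTiter-Glo luminescence; IC50 fitted from inhibition rates across concentrations.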

For the next assay, the system named is HuH-7 cells. Description: Inhibition of HuH-7 cell proliferation (CellTiter-Glo). It counts as cell-based. As to conditions: Homo sapiens; HuH-7 cell proliferation, 72 hours, CellTiter-Glo; read-out: HuH-7 IC50. A digest of the protocol:
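HuH-7 cells plated and left 16–24 h, then exposed to serially diluted compound for 72 h at 37 °C, 5% CO2. Viability read by CellTiter-Glo luminescence. IC50 obtained by curve fitting of inhibition rates.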

The IC50 is the concentration that inhibits the measured activity by half.

A value given as a limit tells only on which side of the number the result lay.

FGFR4 kinase, sequence (P22455 22-802): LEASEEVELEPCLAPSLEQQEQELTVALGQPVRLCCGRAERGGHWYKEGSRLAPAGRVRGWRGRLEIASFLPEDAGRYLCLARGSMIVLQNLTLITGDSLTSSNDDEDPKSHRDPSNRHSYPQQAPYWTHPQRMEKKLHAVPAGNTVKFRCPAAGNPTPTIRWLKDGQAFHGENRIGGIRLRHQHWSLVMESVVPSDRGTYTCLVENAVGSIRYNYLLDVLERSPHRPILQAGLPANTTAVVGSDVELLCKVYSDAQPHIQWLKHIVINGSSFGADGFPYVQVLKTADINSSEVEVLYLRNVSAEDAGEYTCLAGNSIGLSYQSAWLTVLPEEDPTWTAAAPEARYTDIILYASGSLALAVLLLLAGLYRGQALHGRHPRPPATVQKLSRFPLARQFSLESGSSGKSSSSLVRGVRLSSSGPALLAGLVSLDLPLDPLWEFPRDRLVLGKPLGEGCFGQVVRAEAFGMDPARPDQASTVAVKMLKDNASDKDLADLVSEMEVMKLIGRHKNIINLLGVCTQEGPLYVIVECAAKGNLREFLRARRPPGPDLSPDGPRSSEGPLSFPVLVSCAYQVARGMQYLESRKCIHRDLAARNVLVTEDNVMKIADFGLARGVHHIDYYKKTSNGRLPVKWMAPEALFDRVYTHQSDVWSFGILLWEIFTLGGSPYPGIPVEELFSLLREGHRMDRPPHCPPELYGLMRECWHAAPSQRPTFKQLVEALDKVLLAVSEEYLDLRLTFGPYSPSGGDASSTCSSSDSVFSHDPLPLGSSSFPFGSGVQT
FGFR1 kinase, sequence (P11362 22-822): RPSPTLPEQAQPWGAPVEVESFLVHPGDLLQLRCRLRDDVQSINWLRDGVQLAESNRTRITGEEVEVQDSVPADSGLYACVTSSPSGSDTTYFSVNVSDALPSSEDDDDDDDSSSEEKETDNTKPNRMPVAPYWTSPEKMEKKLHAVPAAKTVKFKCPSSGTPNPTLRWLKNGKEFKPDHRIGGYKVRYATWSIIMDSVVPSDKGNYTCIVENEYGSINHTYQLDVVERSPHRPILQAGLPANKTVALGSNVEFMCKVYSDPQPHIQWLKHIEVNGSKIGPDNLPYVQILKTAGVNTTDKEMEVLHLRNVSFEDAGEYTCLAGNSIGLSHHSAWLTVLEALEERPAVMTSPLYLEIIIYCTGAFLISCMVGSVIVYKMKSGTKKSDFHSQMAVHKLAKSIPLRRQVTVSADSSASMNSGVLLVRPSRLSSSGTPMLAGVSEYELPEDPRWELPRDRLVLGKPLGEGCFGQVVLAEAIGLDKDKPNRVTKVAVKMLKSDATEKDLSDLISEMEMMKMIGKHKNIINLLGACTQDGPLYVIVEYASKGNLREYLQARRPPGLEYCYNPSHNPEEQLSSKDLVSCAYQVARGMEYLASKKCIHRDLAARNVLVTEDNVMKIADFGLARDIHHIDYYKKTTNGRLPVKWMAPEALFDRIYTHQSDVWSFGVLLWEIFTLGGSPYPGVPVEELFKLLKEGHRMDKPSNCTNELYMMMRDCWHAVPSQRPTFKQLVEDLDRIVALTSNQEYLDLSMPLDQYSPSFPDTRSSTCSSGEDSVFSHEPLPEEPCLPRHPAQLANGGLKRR

Turning to `N#Cc1cnc(NC(=O)N2CCCc3cc(CN4CCOCC4=O)c(C=O)nc32)cc1NCCN1CCCC1` [Example 2, N-(5-Cyano-4-((2-(pyrrolidin-1-yl)ethyl)amino)pyridin-2-yl)-7-formyl-6-((3-carbonylmorpholino)methyl)-3,4-dihydro-1,8-naphthyridin-1(2H)-carboxamide], the IC50 was 2.9 nM on FGFR4 kinase and > 10000 nM against FGFR1 kinase.

Consider `CC1OCCC1Sc1cc(NC(=O)N2CCCc3cc(CN4CCOCC4=O)c(C=O)nc32)ncc1C#N` (stereo not shown) [Example 3, N-(5-Cyano-4-((2-methyltetrahydrofuran-3-yl)thio)pyridin-2-yl)-7-formyl-6-((3-carbonylmorpholino)methyl)-3,4-dihydro-1,8-naphthyridin-1(2H)-carboxamide], for which the IC50 with Hep 3B cells is 13.1 nM; in the assay with SK-HEP-1 cells, > 10000 nM; on FGFR4 kinase it was 5.4 nM; in the assay with HuH-7 cells, 40.9 nM; against FGFR1 kinase, > 10000 nM.

Consider `COCCNc1cc(NC(=O)N2CCCc3cc(CN4CCCN(C)CC4=O)c(C=O)nc32)ncc1C#N` [Example 7, N-(5-Cyano-4-((2-methoxyethyl)amino)pyridin-2-yl)-7-formyl-6-((4-methyl-2-carbonyl-1,4-diazoheptyl-1-yl)methyl)-3,4-dihydro-1,8-naphthyridin-1(2H)-carboxamide], for which the IC50 in the assay on Hep 3B cells is 1.4 nM; with SK-HEP-1 cells, > 10000 nM; against FGFR4 kinase, 0.6 nM; in the assay with HuH-7 cells it was 10.2 nM; against FGFR1 kinase, > 10000 nM.

`COCCNc1cc(NC(=O)N2CCCc3cc(CN4C(=O)COCC45CC5)c(C=O)nc32)ncc1C#N` [Example 21, N-(5-Cyano-4-((2-methoxyethyl)amino)pyridin-2-yl)-7-formyl-6-((5-carbonyl-7-oxa-4-azaspiro[2.5]octane-4-yl)methyl)-3,4-dihydro-1,8-naphthyridin-1(2H)-carboxamide]: the IC50 in the assay with Hep 3B cells is 8.6 nM; in the assay on SK-HEP-1 cells, > 10000 nM; against FGFR4 kinase, 1.71 nM; in the assay with HuH-7 cells, 13.4 nM; against FGFR1 kinase it was > 10000 nM.

For `COC[C@H](C)Nc1cc(NC(=O)N2CCCc3cc(CN4CCCCOC4=O)c(C=O)nc32)ncc1C#N` [Example 30], the IC50 is 4.6 nM in the assay on Hep 3B cells; > 10000 nM with SK-HEP-1 cells; 2.5 nM on FGFR4 kinase; 13.4 nM with HuH-7 cells; > 10000 nM against FGFR1 kinase.

Take `N#Cc1cnc(NC(=O)N2CCCc3cc(CN4CCCCOC4=O)c(C=O)nc32)cc1S[C@H]1CCOC1` [Example 36]: the IC50 was 8 nM with Hep 3B cells; > 10000 nM in the assay with SK-HEP-1 cells; 4.25 nM on FGFR4 kinase; 20.4 nM in the assay on HuH-7 cells; > 10000 nM against FGFR1 kinase.

As to `CO[C@@H]1COCC1Nc1cc(NC(=O)N2CCCc3cc(CN4CCCCOC4=O)c(C=O)nc32)ncc1C#N` (stereo partly drawn) [Example 37, N-(5-Cyano-4-(((trans)-4-methoxytetrahydrofuran-3-yl)amino)pyridin-2-yl)-7-formyl-6-((2-carbonyl-1,3-oxazepin-3-yl)methyl)-3,4-dihydro-1,8-naphthyridin-1(2H) -carboxamide], the IC50 with Hep 3B cells was 2.8 nM; with SK-HEP-1 cells, > 10000 nM; against FGFR4 kinase, 1.12 nM; in the assay with HuH-7 cells, 4.1 nM; on FGFR1 kinase, > 10000 nM.

With `COCCNc1cc(NC(=O)N2CCCc3cc(CN4C(=O)OCC45CC5)c(C=O)nc32)ncc1C#N` [Example 43, N-(5-Cyano-4-((2-methoxyethyl)amino)pyridin-2-yl)-7-formyl-6-((5-carbonyl-6-oxa-4-azaspiro[2.4]heptan-4-yl)methyl)-3,4-dihydro-1,8-naphthyridin-1(2H)-carboxamide], the IC50 was 8.1 nM with Hep 3B cells; > 10000 nM in the assay on SK-HEP-1 cells; 4.41 nM against FGFR4 kinase; 8.1 nM in the assay on HuH-7 cells; > 10000 nM against FGFR1 kinase.

`CC1COC(=O)N1Cc1cc2c(nc1C=O)N(C(=O)Nc1cc(S[C@@H]3CCOC3)c(C#N)cn1)CCC2` (stereo partly drawn) [Example 44, N-(5-Cyano-4-(((R)-tetrahydrofuran-3-yl)thio)pyridin-2-yl)-7-formyl-6-(((S)-4-methyl-2-carbonyloxazolidin-3-yl)methyl)-3,4-dihydro-1,8-naphthyridin-1(2H)-carboxamide]: the IC50 in the assay with Hep 3B cells is 11.5 nM; in the assay on SK-HEP-1 cells, > 10000 nM; on FGFR4 kinase it was 6.5 nM; in the assay with HuH-7 cells, 35.4 nM; against FGFR1 kinase, > 10000 nM.

`C[C@H]1COC(=O)N1Cc1cc2c(nc1C=O)N(C(=O)Nc1cc(S[C@H]3CCOC3)c(C#N)cn1)CCC2` [Example 45, N-(5-Cyano-4-(((S)-tetrahydrofuran-3-yl)thio)pyridin-2-yl)-7-formyl-6-(((S)-4-methyl-2-carbonyloxazolidin-3-yl)methyl)-3,4-dihydro-1,8-naphthyridin-1(2H)-carboxamide]: the IC50 was 14.2 nM in the assay on Hep 3B cells; > 10000 nM with SK-HEP-1 cells; 4.66 nM on FGFR4 kinase; 32.2 nM with HuH-7 cells; > 10000 nM on FGFR1 kinase.

Regarding `CO[C@H]1COCC1Oc1cc(NC(=O)N2CCCc3cc(CN4C(=O)OC[C@@H]4C)c(C=O)nc32)ncc1C#N` (stereo partly drawn) [Example 47, N-(5-Cyano-4-(((3,4)-trans-4-methoxytetrahydrofuran-3-yl)oxy)pyridin-2-yl)-7-formyl-6-(((S)-4-methyl-2-carbonyloxazolidin-3-yl)methyl)-3,4-dihydro-1,8-naphthyridin-1(2H)-carboxamide], the IC50 was 9.9 nM in the assay on Hep 3B cells; > 10000 nM in the assay with SK-HEP-1 cells; 4.95 nM against FGFR4 kinase; 24.4 nM with HuH-7 cells; > 10000 nM on FGFR1 kinase.

Take `COC[C@@H](C)Oc1cc(NC(=O)N2CCCc3cc(CN4CCOC4=S)c(C=O)nc32)ncc1C#N` [Example 48, (R)-N-(5-Cyano-4-((1-methoxypropan-2-yl)oxy)pyridin-2-yl)-7-formyl-6-((2-thiooxazolidin-3-yl)methyl)-3,4-dihydro-1,8-naphthyridin-1(2H)-carboxamide]: the IC50 in the assay with Hep 3B cells was 13.1 nM; with SK-HEP-1 cells, > 10000 nM; on FGFR4 kinase, 8.48 nM; in the assay on HuH-7 cells, 15.6 nM; against FGFR1 kinase it was > 10000 nM.

Take `COc1ncccc1CNc1cc(NC(=O)N2CCCc3cc(CN4CCOCC4=O)c(C=O)nc32)ncc1C#N` [Example 57, N-(5-Cyano-4-(((2-methoxypyridin-3-yl)methyl)amino)pyridin-2-yl)-7-formyl-6-((3-carbonylmorpholino)methyl)-3,4-dihydro-1,8-naphthyridin-1(2H)-carboxamide]: the IC50 in the assay on Hep 3B cells was 10.2 nM; in the assay on SK-HEP-1 cells it was > 10000 nM; against FGFR4 kinase it was 7.63 nM; in the assay on HuH-7 cells, 24.3 nM; against FGFR1 kinase, > 10000 nM.

Take `CO[C@@H]1CCN(c2cc(NC(=O)N3CCCc4cc(CN5CCN(C)CC5=O)c(C=O)nc43)ncc2C#N)C1` [Example 64, (R)-N-(5-Cyano-4-(3-methoxypyrrolidin-1-yl)pyridin-2-yl)-7-formyl-6-((4-methyl-2-carbonylpiperazin-1-yl)methyl)-3,4-dihydro-1,8-naphthyridin-1(2H)-carboxamide]: the IC50 is 5.3 nM in the assay on Hep 3B cells; > 10000 nM in the assay on SK-HEP-1 cells; 1.62 nM against FGFR4 kinase; 14.6 nM with HuH-7 cells; > 10000 nM on FGFR1 kinase.
